Experimental data from paper PMC7835349 (Communications Biology, 2021).
Where “and” joins values, the source holds several entries; their conditions need not be identical. Equal entries are not always repeated.

Tested on: telemetered dogs
Assay: Conscious dog telemetry (QRS amplitude and other cardiovascular parameters, tolerability)
[1] = dog, 0.2 mg/kg 0.5h infusion, -1 h, 0.2 mg/kg
[2] = dog, 0.2 mg/kg 0.5h infusion, -1.25 h, 0.2 mg/kg
[3] = dog, 0.85 mg/kg 0.5h infusion, 0.5 h, 0.85 mg/kg
[4] = dog, 0.85 mg/kg 0.5h infusion, 0.75 h, 0.85 mg/kg
[5] = dog, 0.85 mg/kg 0.5h infusion, 1 h, 0.85 mg/kg
[6] = dog, 0.85 mg/kg 0.5h infusion, 1.5 h, 0.85 mg/kg
[7] = dog, 0.85 mg/kg 0.5h infusion, 2 h, 0.85 mg/kg
[8] = dog, 0.85 mg/kg 0.5h infusion, 3 h, 0.85 mg/kg
[9] = dog, 0.85 mg/kg 0.5h infusion, 4 h, 0.85 mg/kg
[10] = dog, 0.85 mg/kg 0.5h infusion, 6 h, 0.85 mg/kg
[11] = dog, 0.85 mg/kg 0.5h infusion, 8 h, 0.85 mg/kg
[12] = dog, 0.85 mg/kg 0.5h infusion, 12 h, 0.85 mg/kg
[13] = dog, 0.85 mg/kg 0.5h infusion, 16 h, 0.85 mg/kg
[14] = dog, 0.85 mg/kg 0.5h infusion, 22 h, 0.85 mg/kg
[15] = dog, 0.85 mg/kg 0.5h infusion, -0.75 h, 0.85 mg/kg
[16] = dog, 0.85 mg/kg 0.5h infusion, -1 h, 0.85 mg/kg
[17] = dog, 0.85 mg/kg 0.5h infusion, -1.25 h, 0.85 mg/kg
[18] = dog, AZD4320 0.2 mg/kg, 0.5 h infusion
[19] = dog, AZD4320 0.85 mg/kg, 0.5 h infusion
[20] = dog, AZD4320 0.85 mg/kg, 3 h infusion
[21] = dog, AZD4320 1 mg/kg, 0.5 h infusion
[22] = dog, AZD4320 1.75 mg/kg, 0.5 h infusion

CN(CCO)CCC(CSc1ccccc1)Nc1ccc(S(=O)(=O)NC(=O)c2ccc(N3CCC(C(O)c4ccccc4-c4ccc(Cl)cc4)CC3)cc2)cc1S(=O)(=O)C(F)(F)F (centres unmarked) [AZD4320]
Systolic blood pressure (mmHg) (dog, 0.2 mg/kg 0.5h infusion, -0.75 h, 0.2 mg/kg): 168 mmHg and 148 mmHg and 160 mmHg | ECG PR interval [1]: 91 ms and 102 ms and 82 ms | ECG QRS duration [1]: 38 ms and 40 ms and 37 ms | Left ventricular -dP/dt (mmHg/s) [1]: 3364 mmHg/s and 3529 mmHg/s and 4819 mmHg/s | QRS amplitude (% baseline) [1]: 99 % baseline and 90 % baseline and 93 % baseline | Systolic blood pressure (mmHg) [1]: 161 mmHg and 160 mmHg and 157 mmHg | ECG PR interval [2]: 90 ms and 95 ms and 93 ms | ECG QRS duration [2]: 37 ms and 40 ms | Left ventricular -dP/dt (mmHg/s) [2]: 3238 mmHg/s and 3347 mmHg/s and 4656 mmHg/s | QRS amplitude (% baseline) [2]: 104 % baseline and 91 % baseline and 97 % baseline | Systolic blood pressure (mmHg) [2]: 147 mmHg and 150 mmHg and 151 mmHg | QRS amplitude (% baseline) (dog, 0.2 mg/kg 0.5h infusion, -[…]): 100 % baseline | ECG PR interval [3]: 115 ms and 79 ms | ECG QRS duration [3]: 45 ms and 37 ms and 40 ms | Left ventricular -dP/dt (mmHg/s) [3]: 3662 mmHg/s and 3777 mmHg/s and 3464 mmHg/s | QRS amplitude (% baseline) [3]: 94 % baseline and 95 % baseline and 97 % baseline | Systolic blood pressure (mmHg) [3]: 155 mmHg and 158 mmHg | ECG PR interval [4]: 119 ms and 78 ms | ECG QRS duration [4]: 44 ms and 38 ms and 40 ms | Left ventricular -dP/dt (mmHg/s) [4]: 3170 mmHg/s and 3744 mmHg/s and 3322 mmHg/s | QRS amplitude (% baseline) [4]: 99 % baseline and 91 % baseline and 104 % baseline | Systolic blood pressure (mmHg) [4]: 154 mmHg and 157 mmHg | ECG PR interval [5]: 115 ms and 91 ms | ECG QRS duration [5]: 44 ms and 37 ms and 40 ms | Left ventricular -dP/dt (mmHg/s) [5]: 3366 mmHg/s and 3696 mmHg/s and 3150 mmHg/s | QRS amplitude (% baseline) [5]: 100 % baseline and 90 % baseline and 102 % baseline | Systolic blood pressure (mmHg) [5]: 135 mmHg and 151 mmHg | ECG PR interval [6]: 117 ms and 112 ms | ECG QRS duration [6]: 44 ms and 39 ms and 40 ms | Left ventricular -dP/dt (mmHg/s) [6]: 3030 mmHg/s and 3166 mmHg/s | QRS amplitude (% baseline) [6]: 78 % baseline and 86 % baseline | Systolic blood pressure (mmHg) [6]: 147 mmHg and 138 mmHg | ECG PR interval [7]: 111 ms and 87 ms | ECG QRS duration [7]: 42 ms and 36 ms and 39 ms | Left ventricular -dP/dt (mmHg/s) [7]: 2904 mmHg/s and 3371 mmHg/s | QRS amplitude (% baseline) [7]: 75 % baseline and 83 % baseline | Systolic blood pressure (mmHg) [7]: 144 mmHg and 171 mmHg | ECG PR interval [8]: 99 ms and 81 ms | ECG QRS duration [8]: 37 ms and 33 ms | QRS amplitude (% baseline) [8]: 59 % baseline and 60 % baseline | Systolic blood pressure (mmHg) [8]: 142 mmHg and 156 mmHg | ECG PR interval [9]: 93 ms and 79 ms | ECG QRS duration [9]: 36 ms and 33 ms | QRS amplitude (% baseline) [9]: 56 % baseline and 60 % baseline | Systolic blood pressure (mmHg) [9]: 128 mmHg and 137 mmHg | ECG PR interval [10]: 89 ms and 79 ms | ECG QRS duration [10]: 37 ms and 35 ms | Left ventricular -dP/dt (mmHg/s) [10]: 2074 mmHg/s and 2402 mmHg/s | QRS amplitude (% baseline) [10]: 67 % baseline and 70 % baseline | Systolic blood pressure (mmHg) [10]: 116 mmHg and 117 mmHg | ECG PR interval [11]: 88 ms and 83 ms | ECG QRS duration [11]: 37 ms and 34 ms | Left ventricular -dP/dt (mmHg/s) [11]: 2367 mmHg/s and 2612 mmHg/s | QRS amplitude (% baseline) [11]: 78 % baseline and 80 % baseline | Systolic blood pressure (mmHg) [11]: 120 mmHg and 124 mmHg | ECG PR interval [12]: 85 ms | ECG QRS duration [12]: 40 ms and 36 ms | Left ventricular -dP/dt (mmHg/s) [12]: 3043 mmHg/s and 2589 mmHg/s | QRS amplitude (% baseline) [12]: 84 % baseline and 70 % baseline | Systolic blood pressure (mmHg) [12]: 128 mmHg and 131 mmHg | ECG PR interval [13]: 102 ms and 87 ms | ECG QRS duration [13]: 42 ms and 37 ms | Left ventricular -dP/dt (mmHg/s) [13]: 3119 mmHg/s and 2829 mmHg/s | QRS amplitude (% baseline) [13]: 98 % baseline and 70 % baseline | Systolic blood pressure (mmHg) [13]: 130 mmHg and 147 mmHg | ECG PR interval [14]: 112 ms and 84 ms | ECG QRS duration [14]: 44 ms and 36 ms | Left ventricular -dP/dt (mmHg/s) [14]: 3111 mmHg/s and 3851 mmHg/s | QRS amplitude (% baseline) [14]: 101 % baseline and 78 % baseline | Systolic blood pressure (mmHg) [14]: 132 mmHg and 149 mmHg | ECG PR interval [15]: 111 ms and 99 ms | ECG QRS duration [15]: 45 ms and 39 ms | Left ventricular -dP/dt (mmHg/s) [15]: 3973 mmHg/s and 3847 mmHg/s and 2891 mmHg/s | QRS amplitude (% baseline) [15]: 100 % baseline and 105 % baseline and 103 % baseline | Systolic blood pressure (mmHg) [15]: 162 mmHg and 159 mmHg | ECG PR interval [16]: 108 ms and 98 ms | ECG QRS duration [16]: 44 ms and 36 ms and 39 ms | Left ventricular -dP/dt (mmHg/s) [16]: 3612 mmHg/s and 3810 mmHg/s and 3070 mmHg/s | QRS amplitude (% baseline) [16]: 101 % baseline and 100 % baseline and 107 % baseline | Systolic blood pressure (mmHg) [16]: 149 mmHg and 163 mmHg | ECG PR interval [17]: 110 ms and 96 ms and 89 ms | ECG QRS duration [17]: 44 ms and 37 ms and 40 ms | Left ventricular -dP/dt (mmHg/s) [17]: 3200 mmHg/s and 3594 mmHg/s and 2862 mmHg/s | QRS amplitude (% baseline) [17]: 100 % baseline and 105 % baseline | Systolic blood pressure (mmHg) [17]: 142 mmHg and 165 mmHg and 139 mmHg | QRS amplitude (% baseline) (dog, 0.85 mg/kg 0.5h infusion, -[…]): 100 % baseline | tolerability (dog, 1 mg/kg AZD4320): not tolerated | Effects [18]: No effect level | Tolerated? [18]: Yes | Effects other than QRS amplitude [19]: ↓SBP, ↑HR, ↓dP/dt-, ↓PR interval, ↓QRS interval, ↓LVEDP | Tolerated? [19]: Yes | ↓QRS amplitude (% decrease) [19]: 49% | Tolerated? [20]: Yes | ↓QRS amplitude (% decrease) [20]: 32% | Effects other than QRS amplitude [21]: poorly tolerated | Tolerated? [21]: No | ↓QRS amplitude (% decrease) [21]: 75% | Effects other than QRS amplitude [22]: ↓SBP, ↑HR, ↓dP/dt-, ↓PR interval, ↓QRS interval, ↓LVEDP | Tolerated? [22]: No | ↓QRS amplitude (% decrease) [22]: 94% | cardiovascular changes (preclinical development, Supplementary Fig. 1a, b): dose-dependent decreases in QRS amplitude, QRS duration & PR intervals, blood pressure, left ventricular pressure and contractility
